Among the data in ChEMBL document CHEMBL1131407, “Synthesis and metabotropic glutamate receptor activity of a 2-aminobicyclo[3.2.0]heptane-2,5-dicarboxylic acid, a molecule possessing an extended glutamate conformation” (Bioorg Med Chem Lett, 1998) are Max agonist activity values, retold here.

Experiment [1] concerns the target Metabotropic glutamate receptor 6 (Homo sapiens) (UniProt O15303). Put plainly: Compound (300 uM) was evaluated for percentage agonist activity against human mGluR6 expressed in chinese hamster ovary cells. Format: functional, cell-based.
Experiment [2] addresses Metabotropic glutamate receptor 1 (Homo sapiens) (UniProt Q13255). Description: Compound (300 uM) was evaluated for percentage agonist activity against human mGluR1a expressed in chinese hamster ovary cells. Format: functional, cell-based.

Metabotropic glutamate receptor 6 (Homo sapiens), sequence (O15303 whole entry): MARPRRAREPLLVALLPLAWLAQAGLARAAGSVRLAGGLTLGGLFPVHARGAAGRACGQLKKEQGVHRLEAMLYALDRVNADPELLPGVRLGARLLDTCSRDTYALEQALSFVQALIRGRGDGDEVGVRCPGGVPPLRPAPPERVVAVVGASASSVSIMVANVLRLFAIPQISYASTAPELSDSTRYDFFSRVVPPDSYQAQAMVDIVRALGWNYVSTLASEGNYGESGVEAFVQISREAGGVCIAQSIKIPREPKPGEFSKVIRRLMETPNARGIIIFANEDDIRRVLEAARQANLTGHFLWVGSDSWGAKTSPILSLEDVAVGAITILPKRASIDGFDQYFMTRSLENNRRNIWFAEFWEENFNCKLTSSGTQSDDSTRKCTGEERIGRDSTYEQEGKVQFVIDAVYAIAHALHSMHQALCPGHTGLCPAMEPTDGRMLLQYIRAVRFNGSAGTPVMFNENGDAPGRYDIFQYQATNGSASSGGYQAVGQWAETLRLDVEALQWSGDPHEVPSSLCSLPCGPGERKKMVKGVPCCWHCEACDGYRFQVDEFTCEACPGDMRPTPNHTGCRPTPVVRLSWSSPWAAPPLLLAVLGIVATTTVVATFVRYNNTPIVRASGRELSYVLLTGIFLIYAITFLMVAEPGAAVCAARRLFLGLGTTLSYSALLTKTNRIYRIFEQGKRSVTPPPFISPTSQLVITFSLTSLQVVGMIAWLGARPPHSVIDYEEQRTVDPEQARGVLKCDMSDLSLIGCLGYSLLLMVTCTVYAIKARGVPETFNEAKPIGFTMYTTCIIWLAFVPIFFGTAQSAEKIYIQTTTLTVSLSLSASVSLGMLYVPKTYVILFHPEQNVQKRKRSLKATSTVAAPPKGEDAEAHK
Metabotropic glutamate receptor 1 (Homo sapiens), sequence (Q13255 19-1194 limits assumed): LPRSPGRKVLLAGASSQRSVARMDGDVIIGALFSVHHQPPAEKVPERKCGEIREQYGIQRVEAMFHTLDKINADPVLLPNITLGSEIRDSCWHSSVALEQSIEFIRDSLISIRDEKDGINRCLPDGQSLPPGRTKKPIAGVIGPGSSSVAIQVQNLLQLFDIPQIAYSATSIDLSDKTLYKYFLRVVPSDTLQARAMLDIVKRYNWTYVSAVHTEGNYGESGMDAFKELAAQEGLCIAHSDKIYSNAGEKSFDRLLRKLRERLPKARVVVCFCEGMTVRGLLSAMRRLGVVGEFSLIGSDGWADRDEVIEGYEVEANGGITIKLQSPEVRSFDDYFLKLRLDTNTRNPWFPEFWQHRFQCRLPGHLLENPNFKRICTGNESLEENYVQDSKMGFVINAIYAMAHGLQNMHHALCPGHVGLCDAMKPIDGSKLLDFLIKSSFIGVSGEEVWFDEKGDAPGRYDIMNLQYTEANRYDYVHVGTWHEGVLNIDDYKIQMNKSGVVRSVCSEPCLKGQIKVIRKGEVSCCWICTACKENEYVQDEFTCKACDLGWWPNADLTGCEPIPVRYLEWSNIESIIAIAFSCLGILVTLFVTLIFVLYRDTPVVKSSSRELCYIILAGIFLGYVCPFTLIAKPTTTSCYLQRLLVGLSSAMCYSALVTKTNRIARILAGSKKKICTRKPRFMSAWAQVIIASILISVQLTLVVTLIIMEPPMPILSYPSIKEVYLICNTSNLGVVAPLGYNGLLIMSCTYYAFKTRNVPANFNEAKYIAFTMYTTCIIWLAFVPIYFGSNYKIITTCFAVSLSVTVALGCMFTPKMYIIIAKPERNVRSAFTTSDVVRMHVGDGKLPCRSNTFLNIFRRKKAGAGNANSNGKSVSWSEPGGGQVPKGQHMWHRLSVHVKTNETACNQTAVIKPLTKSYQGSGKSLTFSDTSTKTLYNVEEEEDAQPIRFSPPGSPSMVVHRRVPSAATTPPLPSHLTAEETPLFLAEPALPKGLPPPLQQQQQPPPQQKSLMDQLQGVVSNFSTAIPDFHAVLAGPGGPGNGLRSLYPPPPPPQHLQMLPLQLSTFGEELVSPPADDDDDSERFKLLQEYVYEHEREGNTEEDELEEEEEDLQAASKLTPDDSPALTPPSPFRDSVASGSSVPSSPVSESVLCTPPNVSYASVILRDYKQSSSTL

With `N[C@@]1(C(=O)O)CCC2C[C@H](C(=O)O)C21` (some centres not stated), the Max agonist activity in experiment [1] stood at 20%; in experiment [2], 16%.
